Entries after “also recorded” stand apart in the source; their conditions may differ.
Assays:
Format in all cases: cell-based, human
P-gp [1] = assay: Immunoblotting analysis of P-gp expression, K562-DR; conditions: 4 μM, 72 hours
Procedure: (§1) Immunoblotting analysis of P-gp expression: cells were treated with 4 μM of cis-DMDCK, 4 μM of cis-DMDBK, 4 μM of trans-DMDCK, or 4 μM of trans-DMDBK for 72 hours. Treated cells were collected and mixed well in ice-cold lysis buffer (50 mM Tris pH7.4, 100 mM NaCl, 2 mM EDTA, 1% sodium deoxycholate, 0.1% SDS, 1% triton X-100, 2 mM PMSF, 1% aprotinin) for 30 minutes and then centrifuged to get the total protein. Protein concentration was determined using Bradford assay. In this experiment, 50 μg total protein was separated by 8% SDS-PAGE and electro-transferred to nitrocellulose membranes. The membrane was blocked by 5% skim milk/0.1% Tween-20/TBS (10 mM Tris pH7.5, 100 mM NaCl), and then incubated with anti-P-pg antibody for 1 hour, followed by horseradish-peroxidase-conjugated secondary antibody for another 1 hour. Protein bands were detected by the ECL method.

KB V1 cells [2] = assay: Reversal of multidrug resistance (fold decrease of anticancer drug IC50), KB V1; conditions: KB V1, 4 μM test compound
Procedure: (§2) Cells and cell culture: cell lines used in the experiments are human hepatoma cell line (HepG2), human leukemia cell line (K562), human epidermoid carcinoma cell line (KB-3-1) and their multidrug resistant sublines HepG2-DR, K562-DR. and KB V1. The culture conditions for all cells are following: at 37° C. and 5% CO2), KB-3-1 and KBV1 were cultured in MEM medium containing 10% fetal bovine serum and 100 U/mL antibiotics; K562, K562-DR, HepG2, HepG2-DR were cultured in RPMI-1640 medium containing 10% fetal bovine serum and 100 U/mL, antibiotics. For maintaining the phenotypic characteristics of multidrug resistance, 1.2 μM and 0.1 μM doxorubicin were respectively added into the mediums of HepG2-DR and K562-DR; 200 ng/mL vinblastine was added into the medium of KBV1. Drug resistant cells were grown in drug free medium for at least 7 days before test.
(§3) Each growth inhibition experiment must be repeated three times and results are expressed as mean±standard deviation (SD). Solvents and media were included as blank control.
(§4) In SRB assay, cells are inoculated at 5000 cells/well in a 96-well microplate and incubated overnight to let cells adhere. Drug treatment lasts for 72 hours and cells are fixed for 1 hour at 4° C. with 50 μl ice-cold 15% trichloroacetic acid and washed with triple-distilled water 5 times. Cellular protein is stained by adding 50 μl of 0.4% SRB in 1% acetic acid for 10 minutes, rinsed with 1% acetic acid 5 times and air-dried. The protein-bound dye is dissolved in 100 μl per well of 10 mM Tris base (pH 10.5). The color intensity of SRB, which positively correlate to cell number in preliminary experiments, is estimated at OD 515 nm.
(§5) 1. Materials and methods: the same with I.
(§6) To evaluate the multidrug resistance reversing ability of (±)-Praeruptorin A derivatives, IC50 values of anticancer drugs in the presence and absence of cis-DMDCK, cis-DMDBK, trans-DMDCK, or trans-DMDBK at certain concentration were determined in HepG2-DR, K562-DR and KB V1 cells. The fold decrease of IC50 value of an anticancer drug in certain cell line achieved by a test compound is calculated (fold decrease=IC50 of an anti-tumor drug alone/IC50 of the anti-tumor drug in combination with the test compound) and is used for evaluating the ability of the test compound to reduce drug resistance. The larger the fold decrease value is, the stronger its ability to reverse drug resistance is. The results were average values of three repetitive tests. Verapamil (P-glycoprotein modulator) is the positive control.

KB V1 cells [3] = assay: SRB growth inhibition assay, KB V1; conditions: IC50 KB V1 / IC50 KB-3-1
P-gp [4] = assay: Immunoblotting analysis of P-gp expression, KB V1; conditions: KB V1, 4 μM, 72 hours
Procedure: as §1

HepG2-DR cells [5] = assay: Reversal of multidrug resistance (fold decrease of anticancer drug IC50), HepG2-DR
Procedure: as §2, §3, §4, §5, §6

K562-DR cells = assay: MTT growth inhibition assay, K562-DR; conditions: IC50 K562-DR / IC50 K562
Procedure: K562, K562-DR, HepG2, HepG2-DR were cultured in RPMI-1640 medium containing 10% fetal bovine serum and 100 U/mL, antibiotics. […] Drug test: […] New calorimetric cytotoxicity assay for anticancer-drug screening. […] Mosmann T. Rapid colorimetric assay for cellular growth and survival: application to proliferation and cytotoxicity assays. […] Gerlier D, Thomasset N. […] Each growth inhibition experiment must be repeated three times and results are expressed as mean±standard deviation (SD). Solvents and media were included as blank control. In MTT assay, cells are inoculated at 5000 cells/well and are incubated overnight. Drug treatment lasts for 68 h. MTT (5 mg/ml in PBS) is added to each well (1:10 dilution). […] Viable cell number is estimated by correlating to OD at 570 nm.

HepG2-DR cells [6] = assay: SRB growth inhibition assay, HepG2-DR; conditions: IC50 HepG2-DR / IC50 HepG2
Procedure: K562, K562-DR, HepG2, HepG2-DR were cultured in RPMI-1640 medium containing 10% fetal bovine serum and 100 U/mL, antibiotics. […] Drug test: […] New calorimetric cytotoxicity assay for anticancer-drug screening. […] Mosmann T. Rapid colorimetric assay for cellular growth and survival: application to proliferation and cytotoxicity assays. […] Gerlier D, Thomasset N. […] Each growth inhibition experiment must be repeated three times and results are expressed as mean±standard deviation (SD). Solvents and media were included as blank control. In SRB assay, cells are inoculated at 5000 cells/well in a 96-well microplate and incubated overnight to let cells adhere. Drug treatment lasts for 72 hours and cells are fixed for 1 hour at 4° C. with 50 μl ice-cold 15% trichloroacetic acid and washed with triple-distilled water 5 times. […] The protein-bound dye is dissolved in 100 μl per well of 10 mM Tris base (pH 10.5). The color intensity of SRB, which positively correlate to cell number in preliminary experiments, is estimated at OD 515 nm.

SMILES	Change in P-gp (MDR1) expression level (P-gp [1])	Reversing parameter: fold decrease of IC50, verapamil (KB V1 cells [2])	Reversing parameter: fold decrease of IC50 of Doxorubicin (KB V1 cells [2])	Reversing parameter: fold decrease of IC50 of Puromycin (KB V1 cells [2])	Reversing parameter: fold decrease of IC50 of Vinblastine (KB V1 cells [2])	Resistant ratio (KB V1 cells [3])	Change in P-gp (MDR1) expression level (P-gp [4])	Reversing parameter: fold decrease of IC50 of Doxorubicin (HepG2-DR cells [5]; 2 μM test compound)	Reversing parameter: fold decrease of IC50 of Puromycin (HepG2-DR cells [5]; 2 μM test compound)	Reversing parameter: fold decrease of IC50 of Vinblastine (HepG2-DR cells [5]; 2 μM test compound)	Reversing parameter: fold decrease of IC50 of Doxorubicin (HepG2-DR cells [5]; 4 μM test compound)	Reversing parameter: fold decrease of IC50 of Puromycin (HepG2-DR cells [5]; 4 μM test compound)	Reversing parameter: fold decrease of IC50 of Vinblastine (HepG2-DR cells [5]; 4 μM test compound)	Resistant ratio (K562-DR cells)	Resistant ratio (HepG2-DR cells [6])
COc1ccc(C(=O)O[C@@H]2[C@@H](OC(=O)c3ccc(OC)c(OC)c3)c3c(ccc4ccc(=O)oc34)OC2(C)C)cc1OC (racemic) [trans-DMDBK, (±)-3′-O,4′-O-bis(3,4-dimethoxybenzoyl)-trans-khellactone]	no detectable alteration; also recorded: not observed	2.2 ± 0.4 fold	2.7 ± 0.9 fold	8.4 ± 4.2 fold	1.4 ± 0.2 fold	0.53	no detectable alteration; also recorded: not observed	3.8 ± 1.6 fold	4.6 ± 1.4 fold	1.5 ± 0.3 fold	58.2 ± 17.2 fold	28.5 ± 0.2 fold	19.3 ± 10.4 fold	1.50	1.31
COc1ccc(/C=C/C(=O)O[C@@H]2[C@@H](OC(=O)/C=C/c3ccc(OC)c(OC)c3)c3c(ccc4ccc(=O)oc34)OC2(C)C)cc1OC (racemic) [trans-DMDCK, (±)-3′-O,4′-O-bis(3,4-dimethoxycinnamoyl)-trans-khellactone]	no detectable alteration; also recorded: not observed	6.0 ± 3.1 fold	–	15.3 ± 2.5 fold	–	0.47	no detectable alteration; also recorded: not observed	8.0 ± 0.6 fold	5.6 ± 0.6 fold	1.9 ± 0.0 fold	59.4 ± 18.5 fold	26.6 ± 6.4 fold	13.9 ± 5.8 fold	1.42	1.36
